Data: US9204640B2, “2-acyloxy-pyrrolin-4-ones” (BAYER INTELLECTUAL PROPERTY GMBH, priority 2011, dated 2015)

Legend:
Format in all cases: in vivo
Setaria viridis = experiment: Herbicidal pre-emergence action, SETVI; settings: 20 g/ha
Text: 1. Herbicidal Pre-Emergence Action
• Seeds of monocotyledonous and dicotyledonous weed plants and crop plants are placed in wood-fiber pots in sandy loam and covered with soil. The test compounds, formulated in the form of wettable powders (WP), are then, as an aqueous suspension with a water application rate of 600 l/ha (converted), with 0.2% of wetting agent added, applied at various dosages to the surface of the covering soil. • After the treatment, the pots are placed in a greenhouse and kept under good growth conditions for the test plants. The visual assessment of the damage to the test plants is carried out after a trial period of about 3 weeks by comparison with untreated controls (herbicidal activity in percent: 100% activity=the plants have died, 0% activity=like control plants). • In addition to the compounds mentioned above, the following compounds show an activity of 90-100% against Alopecurus myosuroides, Digitaria sanguinalis, Echinocloa crus-galli, Lolium multiflorum, Setaria viridis and Sorghum halapense when applied by the pre-emergence method at 320 g/ha of a.i.: I-a-2, I-a-10, I-a-11, I-a-12.
1. Herbicidal Pre-Emergence Action (Pre)
• Seeds of monocotyledonous and dicotyledonous weed plants and crop plants are placed in wood-fiber pots in sandy loam and covered with soil. The test compounds, formulated in the form of wettable powders (WP) or emulsion concentrates (EC), are then, as an aqueous suspension with a water application rate of 600-800 l/ha (converted), with 0.1-0.2% of wetting agent added, applied at various dosages to the surface of the covering soil. • After the treatment, the pots are placed in a greenhouse and kept under good growth conditions for the test plants. […] Herbicidal Post-Emergence Action (Post) • Seeds of monocotyledonous and dicotyledonous weed and crop plants are placed in sandy loam in wood-fiber pots, covered with soil and cultivated in a greenhouse under good growth conditions. 2-3 weeks (stages 10-13 according to the BBCH scale) after sowing, the test plants are treated at a height of 5-10 cm. The test compounds, formulated as wettable powders (WP) or emulsion concentrates (EC), are then, with a water application rate of 600-800 l/ha (converted), with 0.1-0.2% of wetting agent added, sprayed at various dosages onto the green parts of the plants.
AVEFA: Avena fatua LOLMU: Lolium multiflorum SETVI: Setaria viridis CHEAL: Chenopodium album VIOTR: Viola tricolor VERPE: Veronica persica ORYSA: Oryza sativa TRZAS: Triticum aestivum ZEAMX: Zea mays ALOMY: Alopecurus myosuroides DIGSA: Digitaria sanguinalis ECHCG: Echinocloa crus-galli SORHA: Sorghum halepense AVESA: Avena sativa AMARE: Amaranthus retroflexus SINAL: Sinapis alba STEME: Stellaria media

Alopecurus myosuroides = experiment: Herbicidal post-emergence action, ALOMY; settings: 20 g/ha
Outline: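 Weeds sown in sandy loam, grown in greenhouse 2–3 weeks and treated post-emergence at one-leaf stage (or BBCH 10–13, 5–10 cm) with WP/EC formulations sprayed at various dosages (600–800 l/ha water, 0.1–0.2% wetting agent). Visual rating after about 3 weeks as % activity versus untreated (100% = dead).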

Phaedon cochleariae = experiment: Phaedon test (PHAECO spray treatment); settings: application rate 500 g/ha, after 7 days, Chinese cabbage leaf discs
Outline: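 Chinese cabbage (Brassica pekinensis) leaf discs sprayed with compound diluted in emulsifier-containing water to the desired concentration, then infested with mustard beetle larvae once dry. Mortality in % scored after 7 days or after the desired period (100% = all larvae dead, 0% = none dead).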

CCOC(=O)OC1=C(c2c(C)cc(I)cc2CC)C(=O)C2(CCC(OC)CC2)N1 (mixture of isomers) [I-b-2]
% Activity SETVI (Setaria viridis): 70% | % Activity ALOMY (Alopecurus myosuroides): 90% | effect in % (beetle larvae killed) (Phaedon cochleariae): 83%
